In patent US8258098B2, “Antitumoral treatments” (Pharma Mar, S.A., priority 2006, dated 2012):

How the values were obtained:
MX1 cells = assay: MTS cytotoxicity assay, 72 hours, single agents and combinations with Aplidine; format: cell-based; conditions: Homo sapiens, MX1, 72 hours drug exposure, read-out: IC50 (Molar)
Procedure: (§1) Day before plating cells all cultures were fed with fresh, complete growth media. On the harvest (plating) day cells were counted by Trypan Blue exclusion staining method (basic cell culture). Cells were harvested and seeded in 96 well microtiter plates at 10,000 cells per well in 190 μL of media and incubated for 24 hours to allow the cells to attach before drug addition. Cells were treated with the drugs and the cytotoxic effect was measured by the MTS Assay (Tetrazolium), which is a colorimetric method for determining the number of viable cells. After the 72 hours of incubation with drug, 25 μL of MTS+PMS solution was added to each microtiter well and incubated for 4 hours at 37° C. Plates were then removed from incubator and placed on plate shaker for 5 minutes (covered with aluminium foil for protection from light). Optical densities were read at 490 nm on spectrophotometer plate reader.
(§2) The microtiter plates were incubated for 72 hrs, at 5% CO2 and 37° C. The cytotoxic effect was measured by MTS Assay. Optical densities read at 490 nm. Normalized data was plotted and interpreted as described. Data was analysed as: • 1. Prism (Graphpad) software program was used to normalized the data to control values (100%=cell growth in the absence of agent (drug); 0%=blank control). • 2. Data normalized were plotted as scatter plots.
(§3) Conversely, antagonism was concluded when inhibition was lower than both maxima. […] Statistical significance was assessed by performing a student's t-test on the inhibition at each dose ratio versus the inhibition at the maximum for each drug.
(§4) As a visual aid, response values were plotted on a scatter plot with dose ratios given on the x-axis and % response values on the y-axis. […] In cases where response values at the two endpoints were approximately equivalent, points lying above or below this predicted line of additivity could be interpreted as representing antagonistic or synergistic drug interaction, respectively.

HT29 cells = assay: as above; format: cell-based; conditions: Homo sapiens, HT-29, HT29, 72 hours drug exposure, read-out: IC50 (Molar)
Procedure: as §1, §2, §3, §4

MOLT3 cells = assay: as above; format: cell-based; conditions: Homo sapiens, MOLT-3, MOLT3, 72 hours drug exposure, read-out: IC50 (Molar)
Procedure: as §1, §2, §3, §4

SKBR3 cells = assay: as above; format: cell-based; conditions: Homo sapiens, SK-BR-3, SKBR3, 72 hours drug exposure, read-out: IC50 (Molar)
Procedure: as §1, §2, §3, §4

A549 cells = assay: as above; format: cell-based; conditions: Homo sapiens, A549, 72 hours drug exposure, read-out: IC50 (Molar)
Procedure: as §1, §2, §3, §4

PC3 cells = assay: as above; format: cell-based; conditions: Homo sapiens, PC-3, PC3, 72 hours drug exposure, read-out: IC50 (Molar)
Procedure: as §1, §2, §3, §4

HL60 cells = assay: as above; format: cell-based; conditions: Homo sapiens, HL-60, HL60, 72 hours drug exposure, read-out: IC50 (Molar)
Procedure: as §1, §2, §3, §4

[1] = test system: MRI-H187 melanoma tumor xenografts; assay: Net tumor volume in tumor xenografts; format: in vivo, female athymic mice; conditions: Aplidine 50 μg/kg, DTIC 40 mg/kg, Carboplatin 25 mg/kg, i.p.
From the text: (§5) Athymic nude female mice were received from Harlan Sprague Dawley, Madison, Wis. at 4-5 weeks of age. Mice were acclimated to the laboratory for at least one week prior to implantation of tumor. Animals were housed in static cages with food and water allowed ad libitum. Experimental animals were implanted with either tumor fragments derived from transplantation established human tumors or with cells obtain directly from in vitro culture. Tumors were implanted subcutaneously on the right flank on Day 0.
(§6) Tumor size measurements were recorded twice weekly beginning on day 4 or 5 using vernier calipers. The formula to calculate volume for a prolate ellipsoid was used to estimate tumor volume from 2-dimensional tumor measurements: tumor volume (mm^3)=(length×width^2)÷2. Assuming unit density, volume was converted to weight (i.e., 1 mm^3=1 mg). […] Treatments were initiated and administered on an individual body weight basis. A dose range finding study was performed on each tumor model to determine the appropriate dose level of each compound used in the combination studies.

[2] = test system: LOX-IMVI melanoma tumor xenografts; assay: Net tumor volume in tumor xenografts; format: in vivo, female athymic mice; conditions: DTIC 30 mg/kg, Carboplatin 25 mg/kg, i.p.
From the text: as §5, §6

[3] = test system: CaKi-1 renal tumor xenografts; assay: Net tumor volume in tumor xenografts; format: in vivo, female athymic mice; conditions: Aplidine 50 μg/kg i.p., Avastin 5.0 mg/kg i.p., IL-2 2 μg/mouse i.p., INF-α 200,000 U/mouse s.c.
From the text: as §5, §6

[4] = test system: MRI-H121 renal tumor xenografts; assay: Net tumor volume in tumor xenografts; format: in vivo, female athymic mice; conditions: Aplidine 25 μg/kg i.p., Avastin […] i.p., IL-2 1 μg/mouse i.p., INF-α 200,000 U/mouse s.c.
From the text: as §5, §6

Compound: COc1cccc2c1C(=O)c1c(O)c3c(c(O)c1C2=O)C[C@@](O)(C(=O)CO)C[C@@H]3O[C@H]1C[C@H](N)[C@H](O)[C@H](C)O1 [doxorubicin]
- IC50 (MX1 cells): > 100 µM
- IC50 (HT29 cells): > 100 µM
- IC50 (MOLT3 cells): 0.0069 µM
- IC50 (SKBR3 cells): 290 nM
- IC50 (A549 cells): 1.3 µM
- IC50 (PC3 cells): 11 µM
- IC50 (HL60 cells): > 100 µM

Compound: CN(C)/N=N/c1[nH]cnc1C(N)=O [DTIC, dacarbazine]
- Net Tumor Volume ± S.E.M. ([1]; MRI-H187, DAY 20): 148 ± 14 mg
- Net Tumor Volume ± S.E.M. ([1]; MRI-H187, DAY 24): 264 ± 60 mg
- Net Tumor Volume ± S.E.M. ([1]; MRI-H187, DAY 27): 377 ± 98 mg
- Net Tumor Volume ± S.E.M. ([1]; MRI-H187, DAY 31): 558 ± 152 mg
- Net Tumor Volume ± S.E.M. ([1]; MRI-H187, DAY 34): 681 ± 187 mg
- Net Tumor Volume ± S.E.M. ([1]; MRI-H187, DAY 38): 927 ± 274 mg
- Net Tumor Volume ± S.E.M. ([1]; MRI-H187, DAY 46): 1508 ± 427 mg
- Net Tumor Volume ± S.E.M. ([1]; MRI-H187, DAY 49): 1804 ± 507 mg
- Net Tumor Volume ± S.E.M. ([1]; MRI-H187, DAY 52): 2036 ± 525 mg
- Net Tumor Volume ± S.E.M. ([1]; MRI-H187, DAY 55): 2123 ± 558 mg
- Net Tumor Volume ± S.E.M. ([1]; MRI-H187, DAY 59): 2166 ± 563 mg
- Net Tumor Volume ± S.E.M. ([1]; MRI-H187, DAY 62): 2333 ± 433 mg
- Net Tumor Volume ± S.E.M. ([1]; MRI-H187, DAY 66): 2508 ± 536 mg
- Net Tumor Volume ± S.E.M. ([2]; DAY 8, Aplidine 50 μg/kg): 208 ± 25 mg
- Net Tumor Volume ± S.E.M. ([2]; DAY 12, Aplidine 50 μg/kg): 699 ± 57 mg
- Net Tumor Volume ± S.E.M. ([2]; DAY 14, Aplidine 50 μg/kg): 950 ± 57 mg
- Net Tumor Volume ± S.E.M. ([2]; DAY 19, Aplidine 50 μg/kg): 2695 ± 560 mg

Compound: O=c1[nH]cc(F)c(=O)[nH]1 [5-FU, 5-fluorouracil]
- IC50 (MX1 cells): > 100 µM
- IC50 (HT29 cells): 880 µM
- IC50 (MOLT3 cells): 11 µM
- IC50 (A549 cells): 1400 µM
- IC50 (PC3 cells): 220 µM
- IC50 (HL60 cells): 1200 µM

Compound: Avastin ®: Bevacizumab (Avastin®), standard of care agent
- Net Tumor Volume ± S.E.M. ([3]; CaKi-1, DAY 13): 105 ± 3 mg
- Net Tumor Volume ± S.E.M. ([3]; CaKi-1, DAY 15): 162 ± 14 mg
- Net Tumor Volume ± S.E.M. ([3]; CaKi-1, DAY 19): 286 ± 49 mg
- Net Tumor Volume ± S.E.M. ([3]; CaKi-1, DAY 22): 398 ± 53 mg
- Net Tumor Volume ± S.E.M. ([3]; CaKi-1, DAY 26): 632 ± 79 mg
- Net Tumor Volume ± S.E.M. ([3]; CaKi-1, DAY 29): 811 ± 90 mg
- Net Tumor Volume ± S.E.M. ([3]; CaKi-1, DAY 33): 985 ± 111 mg
- Net Tumor Volume ± S.E.M. ([3]; CaKi-1, DAY 36): 1251 ± 109 mg
- Net Tumor Volume ± S.E.M. ([3]; CaKi-1, DAY 41): 1654 ± 189 mg
- Net Tumor Volume ± S.E.M. ([3]; CaKi-1, DAY 47): 2170 ± 253 mg
- Net Tumor Volume ± S.E.M. ([3]; CaKi-1, DAY 50): 2842 ± 379 mg
- Net Tumor Volume ± S.E.M. ([4]; MRI-H121, DAY 11): 106 ± 7 mg
- Net Tumor Volume ± S.E.M. ([4]; MRI-H121, DAY 14): 171 ± 16 mg
- Net Tumor Volume ± S.E.M. ([4]; MRI-H121, DAY 18): 306 ± 27 mg
- Net Tumor Volume ± S.E.M. ([4]; MRI-H121, DAY 19): 299 ± 39 mg
- Net Tumor Volume ± S.E.M. ([4]; MRI-H121, DAY 21): 365 ± 39 mg
- Net Tumor Volume ± S.E.M. ([4]; MRI-H121, DAY 26): 503 ± 57 mg
- Net Tumor Volume ± S.E.M. ([4]; MRI-H121, DAY 29): 678 ± 77 mg
- Net Tumor Volume ± S.E.M. ([4]; MRI-H121, DAY 32): 899 ± 93 mg
- Net Tumor Volume ± S.E.M. ([4]; MRI-H121, DAY 35): 898 ± 69 mg
- Net Tumor Volume ± S.E.M. ([4]; MRI-H121, DAY 39): 1240 ± 124 mg
- Net Tumor Volume ± S.E.M. ([4]; MRI-H121, DAY 42): 1383 ± 148 mg

Compound: CC(=O)O[C@H]1C(=O)[C@@]2(C)[C@H]([C@H](OC(=O)c3ccccc3)[C@]3(O)C[C@H](OC(=O)[C@H](O)[C@@H](NC(=O)c4ccccc4)c4ccccc4)C(C)=C1C3(C)C)[C@]1(OC(C)=O)CO[C@@H]1C[C@@H]2O [paclitaxel]
- IC50 (MX1 cells): 9.4 µM
- IC50 (HT29 cells): 0.005 µM
- IC50 (MOLT3 cells): 77 µM
- IC50 (SKBR3 cells): > 100000 nM
- IC50 (A549 cells): 0.013 µM
- IC50 (HL60 cells): 0.016 µM
